According to PMC5992141, “Discovery of pancreastatin inhibitor PSTi8 for the treatment of insulin resistance and diabetes: studies in rodent models of diabetes mellitus” (Scientific Reports, 2018):
Blank lines part the entries; values can stand above or below the compound they belong to. Residues, ends and D or L forms follow the SMILES beside them.

Assays:
GRP78 receptor [1] = target: T1, GRP78 receptor (Homo sapiens, UniProt P11021); test: Competitive binding with sulphorhodamine labelled PST and PSTi8 in HepG2 cells; parameters: endogenous in cells; host or cells: HepG2
Procedure: Sulphorhodamine B labelled PST and PSTi8 were synthesized and purified from Genpro Biotech, India. In HepG2 cells, the competitive binding assay of PST and PSTi8 were performed and the labelled PST and/or PSTi8 concentrations were measured at 568 nm and 584 nm, respectively.

[2] = In-vivo pharmacokinetic study in db/db mice; settings: i.p. 5 mg/kg, SPE, LC-MS/MS
Procedure: PSTi8 (5 mg/kg) was administered (i.p) in db/db mice for PK study. After dosing, blood samples were collected at different time points. Plasma samples (100 µL) were processed using the solid phase extraction (SPE). The 100 µL of eluted SPE samples were injected into the liquid chromatography tandem mass spectrometry (LC-MS/MS) (API 4000QTRAP, ABSciex, Canada) for analysis. The PK profile and parameters were evaluated by non-compartmental model approach using Pheonix 6.3 WinNonlin(Pharsight Corporation, USA).

C57Bl/6 mice = test: Glucose reduction experiment, normoglycemic mice; format: in vivo; settings: control C57Bl/6 mice (normoglycemic), acute i.p. 5 mg/kg
Procedure: (§1) All animal experiments were performed according to protocols approved by Institutional Animal Ethics Committee (IAEC approval no. IAEC/2012/31-A), CSIR-Central Drug Research Institute (CSIR-CDRI, India). Male C57BL/6 mice (8–10 weeks, 15–20 g) and male db/db mice (10–12 weeks, 45–50 g) were obtained from Laboratory of Animal Division, CSIR-CDRI. […] After successful of model development diabetic mice divided in two groups, vehicle control group receive saline and treated group receive PSTi8. After acute (5 mg/kg) and chronic (2 mg/kg) treatment of PSTi8 for 10 days, mice were fasted for 6 hr before experiments and then sacrificed to collect plasma and tissues, which were snap frozen in liquid nitrogen.

GRP78 receptor [3] = target: T1, GRP78 receptor; test: GRP78 ATPase enzymatic activity (Malachite green-phosphate assay); format: biochemical; parameters: purchased Abcam Inc., Cambridge, MA ab78432; settings: PSTi8 5 µM with PST 1 µM, GRP78 0.25 µM, 100 µM ATP, 37 °C, 30 min
Procedure: To determine that PSTi8 inhibit PST inhibitory action on GRP78 ATPase activity, we perform Concentration-dependent spectrophotometric assays using recombinant human GRP78 protein (catalog # ab78432, Abcam Inc., Cambridge, MA). PSTi8 was co-incubated with PST (1 µM) at different doses (1, 2.5 and 5 µM) in 50 µl of assay buffer (20 mM Tris, pH 7.5, 50 mM KCl, 1.5 mM MgCl2) containing GRP78 protein (0.25 µM). The reaction was started by adding 100 µM ATP and incubated at 37 °C for 30 min. On ATP hydrolysis free phosphate (Pi) was measured by a Malachite green-phosphate assay (catalog #10009325, Cayman)[11].

[4] = tested on: HFrD-fed STZ induced IR mice; test: i.p. glucose tolerance test (GTT), HFrD-fed mice; format: in vivo; settings: 6 h fasted, mean ± s.e.m., n = 6
Procedure: as §1
(§2) i.p GTT, i.p ITT and i.p PTT were carried out in 6 hr fasted mice. The blood glucose level was measured from tail tip using Contour TS blood glucose meter. The AUC is calculated using GraphPad Prism 5.0 software[4],[13].

[5] = tested on: HFrD-fed STZ induced IR mice; test: i.p. insulin tolerance test (ITT), HFrD-fed mice; format: in vivo; settings: 6 h fasted, mean ± s.e.m., n = 6
Procedure: as §1, §2

T1 sequence (P11021 19-654): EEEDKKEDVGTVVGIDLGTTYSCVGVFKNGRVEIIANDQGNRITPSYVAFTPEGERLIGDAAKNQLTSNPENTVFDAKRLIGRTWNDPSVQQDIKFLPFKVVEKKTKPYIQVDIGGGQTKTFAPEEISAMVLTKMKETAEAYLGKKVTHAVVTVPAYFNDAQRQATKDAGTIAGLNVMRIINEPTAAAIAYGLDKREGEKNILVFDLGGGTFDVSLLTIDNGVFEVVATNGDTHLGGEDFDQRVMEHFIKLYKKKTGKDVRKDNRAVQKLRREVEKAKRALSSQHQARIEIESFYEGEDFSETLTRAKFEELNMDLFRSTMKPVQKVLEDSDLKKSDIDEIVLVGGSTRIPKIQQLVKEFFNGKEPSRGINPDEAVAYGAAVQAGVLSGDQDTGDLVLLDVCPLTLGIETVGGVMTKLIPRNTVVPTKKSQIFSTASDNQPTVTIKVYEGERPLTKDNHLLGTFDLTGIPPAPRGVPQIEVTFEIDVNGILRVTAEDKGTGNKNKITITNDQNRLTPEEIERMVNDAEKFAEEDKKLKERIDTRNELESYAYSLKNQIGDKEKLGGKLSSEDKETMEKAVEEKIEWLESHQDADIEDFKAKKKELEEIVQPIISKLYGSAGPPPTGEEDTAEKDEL

inhibition at 0.1 µM (GRP78 receptor [1]; PST 100 nM against sulphorhodamine labelled PSTi8 150 nM): > 50%
SMILES: CSCC[C@H](NC(=O)[C@H](CCC(=O)O)NC(=O)[C@H](CCC(=O)O)NC(=O)[C@H](CCC(=O)O)NC(=O)[C@H](CCC(=O)O)NC(=O)[C@H](CCC(=O)O)NC(=O)[C@H](CCCCN)NC(=O)[C@H](CCC(N)=O)NC(=O)[C@H](CCC(N)=O)NC(=O)[C@H](CO)NC(=O)[C@H](Cc1c[nH]cn1)NC(=O)[C@H](CCC(=O)O)NC(=O)[C@H](CCC(N)=O)NC(=O)[C@H](CCC(=O)O)NC(=O)CNC(=O)[C@H](CCCCN)NC(=O)CNC(=O)[C@H](CCC(=O)O)NC(=O)[C@@H]1CCCN1)C(=O)N[C@@H](C)C(=O)N[C@H](C(=O)N[C@H](C(=O)N1CCC[C@H]1C(=O)N[C@@H](CCC(N)=O)C(=O)NCC(=O)N[C@@H](CC(C)C)C(=O)N[C@@H](Cc1ccccc1)C(=O)N[C@@H](CCCNC(=N)N)C(=O)NCC(N)=O)C(C)C)C(C)C [PST, Pancreastatin] (H-PEGKGEQEHSQQKEEEEEMAVVPQGLFRG-NH2)

time up to which plasma concentration was observed [2]: ≤ 6 h | inhibition at 0.3 µM (GRP78 receptor [1]; PSTi8 300 nM against sulphorhodamine labelled PST 25 nM): > 50% | enhancement of ATPase activity of GRP78 inhibited by PST (GRP78 receptor [3]): ~50%
SMILES: CSCC[C@H](NC(=O)[C@H](CCC(=O)O)NC(=O)[C@H](CCC(=O)O)NC(=O)[C@H](CCC(=O)O)NC(=O)[C@H](CCC(=O)O)NC(=O)[C@H](CCC(=O)O)NC(=O)[C@H](CCCCN)NC(=O)[C@H](CCC(N)=O)NC(=O)[C@H](CCC(N)=O)NC(=O)[C@H](CO)NC(=O)[C@H](Cc1c[nH]cn1)NC(=O)[C@H](CCC(=O)O)NC(=O)[C@H](CCC(N)=O)NC(=O)[C@H](CCC(=O)O)NC(=O)CNC(=O)[C@H](CCCCN)NC(=O)CNC(=O)[C@H](CCC(=O)O)NC(=O)[C@@H]1CCCN1)C(=O)N[C@@H](C)C(=O)N[C@H](C(N)=O)C(C)C [PSTi8] (H-PEGKGEQEHSQQKEEEEEMAV-NH2)
effect on blood glucose level (C57Bl/6 mice): did not show any decrease in glucose level

SMILES: CN(C)C(=N)N=C(N)N [metformin]
AUC, i.p GTT ([4]; acute metformin p.o. 300 mg/kg, 30 min before glucose 1 g/kg): 44068.5 ± 3070.1 mg·min/dL | AUC, i.p GTT ([4]; chronic metformin p.o. 300 mg/kg for 7 days, glucose 1 g/kg): 36913.13 ± 891.89 mg·min/dL | AUC, ipITT ([5]; acute metformin p.o. 300 mg/kg, 30 min before insulin 0.6 IU/kg): 19828.5 ± 1004.11 mg·min/dL | AUC, ipITT ([5]; chronic metformin p.o. 300 mg/kg for 7 days, insulin 0.6 IU/kg): 16417.5 ± 1222.35 mg·min/dL
